Results as given in patent US7235548B2, “Compounds and their use as positive AMPA receptor modulators” (NeuroSearch A/S, priority 1998, dated 2007).

Biological target: ionotropic quisqualate (AMPA) receptors
Test: In vitro inhibition of 3H-AMPA binding
Settings: 5 nM 3H-AMPA, rat cerebral cortex membranes, 30 min at 2° C.; read-out: IC50 (concentration of the test substance which inhibits the specific binding of 3H-AMPA by 50%)
Description: L-glutamate (GLU) is the major excitatory neurotransmitter in the mammalian central nervous system. From electrophysiological- and binding studies, there appear to be at least three subtypes of GLU receptors, tentatively named N-methyl-D-aspartate (NMDA)-, quisqualate- and kainate receptors. GLU receptor subtypes sensitive to quisqualate and kainate as a group are often referred to as non-NMDA receptors. Receptor binding studies using the labelled agonists ^3H-AMPA (α-amino-3-hydroxy-5-methyl-4-isoxazolepropionic acid) (for quisqualate receptors) and ^3H-kainate (for kainate receptors) have shown different antagonist selectivities and regional distribution. AMPA has been known for several years to be a potent and selective agonist at the traditionally named quisqualate receptors. Activation of quisqualate receptors by AMPA is associated with Na^+ influx and K^+ efflux leading to depolarization.
The non-NMDA receptors have recently been reclassified to include the quisqualate activated metabotropic receptor type, linked to the inositol triphosphate and diacylglycerate metabolism. […] Selective activation of the metabotropic type has been claimed for trans-ACPD. Recently, the potent and competitive non-NMDA receptor antagonists CNQX and NBQX have been described, and CNQX have been reported not to block the effect of quisqualate at the metabotropic receptor subtype. ^3H-AMPA is a selective radioligand for labelling the ionotropic quisqualate (AMPA) receptors.
Preparations are performed at 0–4° C. unless otherwise indicated. Cerebral cortex from male Wistar rats (150–200 g) is homogenized for 5–10 sec in 20 ml Tris-HCl (30 mM, pH 7.4) using an Ultra-Turrax homogenizer. The suspension is centrifuged at 27,000×g for 15 min and the pellet is washed three times with buffer (centrifuged at 27,000×g for 10 min). The washed pellet is homogenized in 20 ml of buffer and incubated on a water bath (37° C.) for 30 min to remove endogenous glutamate and then centrifuged for 10 min at 27,000×g. The pellet is then homogenized in buffer and centrifuged at for 10 min at 27,000×g. The final pellet is resuspended in 30 ml buffer and the preparation is frozen and stored at −20° C.
The membrane preparation is thawed and centrifuged at 2° C. for 10 min at 27,000×g for 10 min. The pellet is washed twice with 20 ml 30 mM Tris-HCl containing 2.5 mM CaCl2, pH 7.4 using an Ultra-Turrax homogenizer and centrifuged for 10 min at 27,000×g. The final pellet is resuspended in 30 mM Tris-HCl containing 2.5 mM CaCl2 and 100 mM KSCN, pH 7.4 (100 ml per g of original tissue) and used for binding assays. Aliquots of 0.5 (0.2) ml are added to 25 (20) μl of test solution and 25(20) μl of ^3H-AMPA (5 nM, final concentration), mixed and incubated for 30 min at 2° C. Non-specific binding is determined using L-glutamate (0.6 mM, final concentration). After incubation the 550 μl samples are added 5 ml of ice-cold buffer and poured directly onto Whatman GF/C glass fibre filters under suction and immediately washed with 5 ml of ice-cold buffer. The 240 μl samples are filtered over glass fibre filter using a Skatron cell harvrester. The filters are washed with 3 ml ice-cold buffer. The amount of radioactivity on the filters is determined by conventional liquid scintillation counting. Specific binding is total binding minus non-specific binding.
The test value will be given as the IC50 (the concentration (μM) of the test substance which inhibits the specific binding of ^3H-AMPA by 50%)

Row | IC50 | Structure (SMILES)
1 | 8.5 µM | CN1CCN(S(=O)(=O)c2ccc3c(c2)S(=O)(=O)NC(C2CCCCC2)N3)CC1 (stereo not shown) [Compound 61, 3-Cyclohexyl-7-(4′-methylpiperazino)sulfonyl-1,2,3,4-tetrahydro-1,2,4-benzothiadiazine-1,1-dioxide]
2 | 6 µM | O=S1(=O)NC(C2CCCCC2)Nc2ccc(S(=O)(=O)N3CCOCC3)cc21 (stereo not shown) [Compound 63, 3-Cyclohexyl-7-morpholinosulfonyl-1,2,3,4-tetrahydro-1,2,4-benzothiadiazine-1,1-dioxide]
3 | 33 µM | Cc1cc2c(cc1S(=O)(=O)N1CCCCC1)S(=O)(=O)NC(C1CCCC1)N2 (stereo not shown) [Compound 114, 3-Cyclopentyl-6-methyl-7-piperidinosulfonyl-1,2,3,4-tetrahydro-1,2,4-benzothia-diazine-1,1-dioxide]
4 | 7 µM | Cc1cc2c(cc1S(=O)(=O)N1CCOCC1)S(=O)(=O)NC(C1CCCCC1)N2 (stereo not shown) [Compound 115, 3-Cyclohexyl-6-methyl-7-morpholinosulfonyl-1,2,3,4-tetrahydro-1,2,4-benzothiadiazine-1,1-dioxide]
